Measured values from publication PMC5352776, “Neutron activation increases activity of ruthenium-based complexes and induces cell death in glioma cells independent of p53 tumor suppressor gene” (Biometals, 2017).

Key:
[1] = test system: U87 (p53 wild-type) glioblastoma cells; experiment: MTT cytotoxic activity assay, U87 cells; format: cell-based, human; conditions: for IC50: 24 h exposure, MTT; for Selectivity index U87: SI = IC50 MRC5/IC50 tumor cell
Procedure: (§1) Malignant human Glioblastoma tumor cell lines U87 (p53 wild-type), T98 (p53 mutant) and normal cells MRC5 (Human Fetal Lung Fibroblast) were obtained from the American Type Culture Collection (ATCC, USA). The cells were maintained in Dulbecco’s Modified Eagle’s Medium (DMEM, Gibco), supplemented with 10% fetal bovine serum (FBS-Cultilab) and antibiotics (50 U/ml penicillin, […] streptomycin), at 37 °C in a humidified 5% CO2 atmosphere. For all experiments, cells were seeded at appropriate concentrations to ensure exponential growth.
(§2) The cytotoxicity of ruthenium(II) compounds was determined by measuring mitochondrial activity as a indicator of cell viability dependent on the reduction of MTT 3-(4,5-dimethylthiazol-2-yl)-2,5-diphenyl tetrazolium bromide to formazan (Mosmann [1983]). Cells (1.5 × 10^3/well) were seeded in 200 μl complete medium into 96-well microplates in triplicates. The plates were incubated at 37 °C in 5% CO2 for 24 h to allow cell adhesion, prior to drug testing. All radioactive or non-radioactive tested compounds were dissolved in sterile DMSO and diluted to reach final concentrations ranging from 1 × 10^−10 to 1 × 10^−4 mol l^−1. Cells were exposed to the compounds for a 24 h period and then, 0.5 mg ml^−1 of MTT solution was added to each well and further incubated for 4 h. The precipitated formazan crystals were dissolved in DMSO and the absorbance of produced color measured spectrophotometrically at 570 nm. The results were expressed as % viability of non-treated cell (control) versus drug concentration and the concentration that reduces cell viability by 50% (IC50) was calculated.

[2] = test system: T98 (p53 mutant) glioblastoma cells; experiment: MTT cytotoxic activity assay, T98 cells; format: cell-based, human; conditions: for IC50: 24 h exposure, MTT; for Selectivity index T98: SI = IC50 MRC5/IC50 tumor cell
Procedure: as §1, §2

[3] = test system: MRC5 (Human Fetal Lung Fibroblast); experiment: MTT cytotoxic activity assay, MRC5 normal cells; format: cell-based; conditions: 24 h exposure
Procedure: as §1, §2

[4] = radioactive (neutron activated) compounds
[5] = Radioactive (neutron activated form)
[6] = non-radioactive compounds, listed as [Ru(pic)(bipy)(dppf)]PF6
[7] = non-radioactive compounds, listed as [Ru(pic)(bipy)(dppp)]PF6

For “[^103Ru(pic)(bipy)(dppp)]PF6 [[^103Ru(pic)(bipy)(dppp)]PF6 (4)]”, the IC50 [1, 4] was 0.31 nM, the IC50 [2, 4] was 0.62 nM and the IC50 [3, 4] was 0.47 nM.
For `F[P-](F)(F)(F)(F)F.O=C([O-])c1ccccn1.[Ru+2].c1ccc(-c2ccccn2)nc1.c1ccc(P(CCP(c2ccccc2)c2ccccc2)c2ccccc2)cc1` [[Ru(pic)(bipy)(dppe)]PF6 (2), [Ru(pic)(bipy)(dppe)]PF6], the “Selectivity index U87” value ([1]; Non-radioactive) was 2.95, the “Selectivity index U87” value [1, 5] was 0.87 and the IC50 ([1]; non-radioactive compounds) was 27800 ± 11700 nM. For the same molecule, the “Selectivity index T98” value ([2]; Non-radioactive) was 4.32, the “Selectivity index T98” value [2, 5] was 0.39 and the IC50 ([2]; non-radioactive compounds) was 19000 ± 5900 nM. The IC50 ([3]; non-radioactive compounds) was 82100 ± 9100 nM.
With `F[P-](F)(F)(F)(F)F.O=C([O-])c1ccccn1.[Ru+2].c1ccc(-c2ccccn2)nc1.c1ccc(P(CCCCP(c2ccccc2)c2ccccc2)c2ccccc2)cc1` [[Ru(pic)(bipy)(dppb)]PF6 (1), [Ru(pic)(bipy)(dppb)]PF6] the “Selectivity index U87” value ([1]; Non-radioactive) was 2.55, the “Selectivity index U87” value [1, 5] was 1.63 and the IC50 ([1]; non-radioactive compounds) was 16100 ± 3300 nM. The “Selectivity index T98” value ([2]; Non-radioactive) was 3.45, the “Selectivity index T98” value [2, 5] was 1.14 and the IC50 ([2]; non-radioactive compounds) was 11900 ± 5900 nM. For the same molecule, the IC50 ([3]; non-radioactive compounds) was 41000 ± 10100 nM.
For `F[P-](F)(F)(F)(F)F.O=C([O-])c1ccccn1.[Fe+2].[Ru+2].c1ccc(-c2ccccn2)nc1.c1ccc(P(c2ccccc2)[c-]2cccc2)cc1.c1ccc(P(c2ccccc2)[c-]2cccc2)cc1` [[Ru(pic)(bipy)(dppf)]PF6 (3), [Ru(pic)(bipy)(dppf)]PF6], the “Selectivity index U87” value ([1]; Non-radioactive) was 2.23, the “Selectivity index U87” value [1, 5] was 0.90 and the IC50 ([1]; non-radioactive compounds) was 4000 ± 8500 nM. For the same molecule, the IC50 [1, 6] was 3980 ± 850 nM, the “Selectivity index T98” value ([2]; Non-radioactive) was 2.91 and the “Selectivity index T98” value [2, 5] was 0.70. For the same molecule, the IC50 ([2]; non-radioactive compounds) was 3000 ± 700 nM, the IC50 [2, 6] was 3050 ± 720 nM and the IC50 ([3]; non-radioactive compounds) was 8900 ± 2300 nM.
Work on “[^103Ru(pic)(bipy)(dppe)]PF6 [[^103Ru(pic)(bipy)(dppe)]PF6 (2)]” yielded an IC50 [1, 4] of 0.23 nM, an IC50 [2, 4] of 0.52 nM and an IC50 [3, 4] of 0.2 nM.
“[^103Ru(pic)(bipy)(dppb)]PF6 [[^103Ru(pic)(bipy)(dppb)]PF6 (1)]” showed an IC50 [1, 4] of 0.24 nM, an IC50 [2, 4] of 0.34 nM and an IC50 [3, 4] of 0.39 nM.
With `F[P-](F)(F)(F)(F)F.O=C([O-])c1ccccn1.[Ru+2].c1ccc(-c2ccccn2)nc1.c1ccc(P(CCCP(c2ccccc2)c2ccccc2)c2ccccc2)cc1` [[Ru(pic)(bipy)(dppp)]PF6 (4), [Ru(pic)(bipy)(dppp)]PF6] the “Selectivity index U87” value ([1]; Non-radioactive) was 0.29, the “Selectivity index U87” value [1, 5] was 1.52 and the IC50 ([1]; non-radioactive compounds) was 4900 ± 2500 nM. For the same molecule, the IC50 [1, 7] was 4920 ± 2460 nM, the “Selectivity index T98” value ([2]; Non-radioactive) was 0.98 and the “Selectivity index T98” value [2, 5] was 0.76. It also gave an IC50 ([2]; non-radioactive compounds) of 1500 ± 500 nM, an IC50 [2, 7] of 1490 ± 500 nM and an IC50 ([3]; non-radioactive compounds) of 1470 ± 600 nM.
`N.N.[Cl][Pt][Cl]` [Cisplatin, reference compound] was tested, and the “Selectivity index U87” value ([1]; Non-radioactive) was 2.87, the IC50 ([1]; non-radioactive compounds) was 1800 ± 200 nM and the “Selectivity index T98” value ([2]; Non-radioactive) was 0.95. The IC50 ([2]; non-radioactive compounds) was 5300 ± 1900 nM and the IC50 ([3]; non-radioactive compounds) was 5050 ± 700 nM.
Work on “[^103Ru(pic)(bipy)(dppf)]PF6 [[^103Ru(pic)(bipy)(dppf)]PF6 (3)]” yielded an IC50 [1, 4] of 0.42 nM, an IC50 [2, 4] of 0.54 nM and an IC50 [3, 4] of 0.38 nM.
